Values of other authors, collected in patent US6126939A, “Anti-inflammatory dipeptide and pharmaceutical composition thereof” (Yeda Research and Development Co. Ltd., priority 1997, dated 2000).

Key:
[1] = tested on: blood sugar levels; details: rats, i.p. 100 mg/kg
[2] = in vitro test assay
[3] = tested on: macrophage migration; details: literature
[4] = tested on: IL-1; details: literature

Arg-Asn
hypoglycemic activity (lowering of blood sugar levels) [1]: having hypoglycemic activity | antilipolytic activity [2]: no significant antilipolytic activity

Asn-Arg-NH2
hypoglycemic activity (lowering of blood sugar levels) [1]: having hypoglycemic activity | antilipolytic activity [2]: have antilipolytic activity

COc1ccc2c(C(=S)N(C)CC(=O)O)cccc2c1C(F)(F)F [Tolrestat]
macrophage migration [3]: Another MIF

Glu-Arg-OMe
hypoglycemic activity (lowering of blood sugar levels) [1]: having hypoglycemic activity | antilipolytic activity [2]: have antilipolytic activity

Gln-Arg-OMe
hypoglycemic activity (lowering of blood sugar levels) [1]: having hypoglycemic activity | antilipolytic activity [2]: no significant antilipolytic activity

Thr-Lys-Pro [TKP]
macrophage migration [3]: inhibit macrophage migration | secretion of IL-1 macrophages [4]: reduce secretion of IL-1

Glu-Arg-NH2
hypoglycemic activity (lowering of blood sugar levels) [1]: did not significantly lower blood sugar levels | antilipolytic activity [2]: have antilipolytic activity

Gln-Arg-NH2
hypoglycemic activity (lowering of blood sugar levels) [1]: having hypoglycemic activity | antilipolytic activity [2]: have antilipolytic activity

Arg-Asn-NH2
hypoglycemic activity (lowering of blood sugar levels) [1]: having hypoglycemic activity | antilipolytic activity [2]: have antilipolytic activity
